Measurements from patent US9302999B2, “Substituted triazoles as herbicides” (E. I. DU PONT DE NEMOURS AND COMPANY, priority 2012, dated 2016).

Key:
Type in all cases: in vivo
[1] = tested on: velvetleaf (Abutilon theophrasti); test: Test A pre-/postemergence: velvetleaf; settings: for Velvetleaf plant response rating: Postemergence; for Plant response rating, Velvetleaf: Preemergence
How it was run: (§1)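 Visual 0–100 injury ratings (0 no effect, 100 complete control) taken about ten days after treatment, relative to untreated controls. Preemergence treatment was a directed soil spray; postemergence plants were 2–10 cm tall at one- to two-leaf stage. Soil: loam/sand blend.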

[2] = tested on: pigweed (Amaranthus retroflexus); test: Test A pre-/postemergence: pigweed; settings: for Pigweed plant response rating: Postemergence; for Plant response rating, Pigweed: Preemergence
How it was run: as §1

[3] = tested on: wheat (Triticum aestivum); test: Test A pre-/postemergence: wheat; settings: for Wheat plant response rating: Postemergence; for Plant response rating, Wheat: Preemergence
How it was run: as §1

[4] = tested on: foxtail, giant (giant foxtail, Setaria faberii); test: Test A pre-/postemergence: foxtail, giant; settings: for Foxtail, Giant plant response rating: Postemergence; for Plant response rating, Foxtail, Giant: Preemergence
How it was run: as §1

[5] = tested on: ducksalad (Heteranthera limosa); test: Test C flooded paddy test: ducksalad; settings: scale 0 to 100 (0 no effect, 100 complete control)
How it was run: (§2)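 Rating: visual, 0–100 (100 = complete control), versus untreated controls after 13 to 15 greenhouse days. Treatment went into paddy water held at 3 cm over the soil, on plants grown to two leaves.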

[6] = tested on: crabgrass, large (large crabgrass, Digitaria sanguinalis); test: Test A pre-/postemergence: crabgrass, large; settings: for Crabgrass, Large plant response rating: Postemergence; for Plant response rating, Crabgrass, Large: Preemergence
How it was run: as §1

[7] = tested on: barnyardgrass (Echinochloa crus-galli); test: Test A pre-/postemergence: barnyardgrass; settings: for Barnyardgrass plant response rating: Postemergence; for Plant response rating, Barnyardgrass: Preemergence
How it was run: as §1

[8] = tested on: sedge, umbrella (small-flower umbrella sedge, Cyperus difformis); test: Test C flooded paddy test: sedge, umbrella; settings: scale 0 to 100 (0 no effect, 100 complete control)
How it was run: as §2

[9] = tested on: barnyardgrass (Echinochloa crus-galli); test: Test C flooded paddy test: barnyardgrass; settings: scale 0 to 100 (0 no effect, 100 complete control)
How it was run: as §2

[10] = tested on: morningglory (Ipomoea spp.); test: Test A pre-/postemergence: morningglory; settings: for Morningglory plant response rating: Postemergence; for Plant response rating, Morningglory: Preemergence
How it was run: as §1

[11] = tested on: rice (Oryza sativa); test: Test C flooded paddy test: rice; settings: scale 0 to 100 (0 no effect, 100 complete control)
How it was run: as §2

[12] = tested on: corn (Zea mays); test: Test A pre-/postemergence: corn; settings: for Corn plant response rating: Postemergence; for Plant response rating, Corn: Preemergence
How it was run: as §1

[13] = 125 g ai/ha, 0 to 100 scale, 0 is no effect, 100 is complete control
[14] = 500 g ai/ha, visual rating on 0 to 100 scale (0 no effect, 100 complete control), approximately ten days
[15] = 125 g ai/ha, 0 to 100 scale (0 no effect, 100 complete control)
[16] = 500 g ai/ha, 0 to 100 scale, 0 is no effect, 100 is complete control
[17] = Flood (flooded paddy test), 62 g ai/ha, visual rating after 13 to 15 days
[18] = Flood (flooded paddy test), 125 g ai/ha, visual rating after 13 to 15 days
[19] = Flood (flooded paddy test), 250 g ai/ha, visual rating after 13 to 15 days

Structure (SMILES): Cc1nn(-c2ccc(F)cc2)nc1Oc1ccnc(OCC(F)(F)F)c1 [Compound 71]
- Velvetleaf plant response rating [1, 13]: 0
- Velvetleaf plant response rating [1, 14]: 10
- Plant response rating, Velvetleaf [1, 15]: 0
- Plant response rating, Velvetleaf [1, 16]: 0
- Pigweed plant response rating [2, 13]: 10
- Pigweed plant response rating [2, 14]: 40
- Plant response rating, Pigweed [2, 15]: 0
- Plant response rating, Pigweed [2, 16]: 0
- Wheat plant response rating [3, 13]: 0
- Wheat plant response rating [3, 14]: 0
- Plant response rating, Wheat [3, 15]: 0
- Plant response rating, Wheat [3, 16]: 0
- Foxtail, Giant plant response rating [4, 13]: 10
- Foxtail, Giant plant response rating [4, 14]: 10
- Plant response rating, Foxtail, Giant [4, 15]: 0
- Plant response rating, Foxtail, Giant [4, 16]: 0
- Plant response rating, Ducksalad [5, 17]: 0
- Plant response rating, Ducksalad [5, 18]: 0
- Plant response rating, Ducksalad [5, 19]: 0
- Plant response rating, Ducksalad ([5]; Flood, 31 g ai/ha): 0
- Crabgrass, Large plant response rating [6, 13]: 10
- Crabgrass, Large plant response rating [6, 14]: 10
- Plant response rating, Crabgrass, Large [6, 15]: 0
- Plant response rating, Crabgrass, Large [6, 16]: 10
- Barnyardgrass plant response rating [7, 13]: 0
- Barnyardgrass plant response rating [7, 14]: 10
- Plant response rating, Barnyardgrass [7, 15]: 0
- Plant response rating, Barnyardgrass [7, 16]: 0
- Plant response rating, Sedge, Umbrella [8, 17]: 0
- Plant response rating, Sedge, Umbrella [8, 18]: 0
- Plant response rating, Sedge, Umbrella [8, 19]: 0
- Plant response rating, Sedge, Umbrella ([8]; Flood, 31 g ai/ha): 0
- Plant response rating, Barnyardgrass [9, 17]: 0
- Plant response rating, Barnyardgrass [9, 18]: 0
- Plant response rating, Barnyardgrass [9, 19]: 0
- Plant response rating, Barnyardgrass ([9]; Flood, 31 g ai/ha): 0
- Morningglory plant response rating [10, 13]: 10
- Morningglory plant response rating [10, 14]: 10
- Plant response rating, Morningglory [10, 15]: 0
- Plant response rating, Morningglory [10, 16]: 0
- Plant response rating, Rice [11, 17]: 0
- Plant response rating, Rice [11, 18]: 0
- Plant response rating, Rice [11, 19]: 0
- Plant response rating, Rice ([11]; Flood, 31 g ai/ha): 0
- Corn plant response rating [12, 13]: 0
- Corn plant response rating [12, 14]: 10
- Plant response rating, Corn [12, 15]: 0
- Plant response rating, Corn [12, 16]: 0

Structure (SMILES): Cc1nn(-c2ccc(C(F)(F)F)nc2)nc1C(=O)c1cccc(C(F)(F)F)c1 [Compound 73]
- Velvetleaf plant response rating [1, 13]: 20
- Velvetleaf plant response rating [1, 14]: 40
- Plant response rating, Velvetleaf [1, 15]: 0
- Plant response rating, Velvetleaf [1, 16]: 10
- Pigweed plant response rating [2, 13]: 70
- Pigweed plant response rating [2, 14]: 100
- Plant response rating, Pigweed [2, 15]: 30
- Plant response rating, Pigweed [2, 16]: 100
- Wheat plant response rating [3, 13]: 10
- Wheat plant response rating [3, 14]: 20
- Plant response rating, Wheat [3, 15]: 0
- Plant response rating, Wheat [3, 16]: 10
- Foxtail, Giant plant response rating [4, 13]: 10
- Foxtail, Giant plant response rating [4, 14]: 40
- Plant response rating, Foxtail, Giant [4, 15]: 60
- Plant response rating, Foxtail, Giant [4, 16]: 90
- Plant response rating, Ducksalad [5, 17]: 0
- Plant response rating, Ducksalad [5, 18]: 0
- Plant response rating, Ducksalad [5, 19]: 85
- Plant response rating, Ducksalad ([5]; Flood, 31 g ai/ha): 0
- Crabgrass, Large plant response rating [6, 13]: 20
- Crabgrass, Large plant response rating [6, 14]: 60
- Plant response rating, Crabgrass, Large [6, 15]: 50
- Plant response rating, Crabgrass, Large [6, 16]: 90
- Barnyardgrass plant response rating [7, 13]: 10
- Barnyardgrass plant response rating [7, 14]: 30
- Plant response rating, Barnyardgrass [7, 15]: 0
- Plant response rating, Barnyardgrass [7, 16]: 40
- Plant response rating, Sedge, Umbrella [8, 17]: 0
- Plant response rating, Sedge, Umbrella [8, 18]: 0
- Plant response rating, Sedge, Umbrella [8, 19]: 0
- Plant response rating, Sedge, Umbrella ([8]; Flood, 31 g ai/ha): 0
- Plant response rating, Barnyardgrass [9, 17]: 0
- Plant response rating, Barnyardgrass [9, 18]: 0
- Plant response rating, Barnyardgrass [9, 19]: 0
- Plant response rating, Barnyardgrass ([9]; Flood, 31 g ai/ha): 0
- Morningglory plant response rating [10, 13]: 20
- Morningglory plant response rating [10, 14]: 70
- Plant response rating, Morningglory [10, 15]: 0
- Plant response rating, Morningglory [10, 16]: 10
- Plant response rating, Rice [11, 17]: 0
- Plant response rating, Rice [11, 18]: 0
- Plant response rating, Rice [11, 19]: 0
- Plant response rating, Rice ([11]; Flood, 31 g ai/ha): 0
- Corn plant response rating [12, 13]: 10
- Corn plant response rating [12, 14]: 20
- Plant response rating, Corn [12, 15]: 0
- Plant response rating, Corn [12, 16]: 0
